The source of these data is ChEMBL document CHEMBL1201862, “PubChem BioAssay data set” (2004).

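All cell lines were grown in 96-well plates and treated with compound for 48 hours. GI50 marks 50% less growth.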 The source made the active and inactive calls. No stated cut-off is given here; in the data, active = GI50 up to about 1.1 µM and inactive = higher. Where only a bound is given, the exact number is not on record here.

What all share (assay): NCI-60 cell line screen, 48 h
The test system of assay [1] is DU-145.
Assay [2] relates to NCI-H23.
In assay [3] the test system is SF-268.
Assay [4] concerns HCT-116.
The subject of assay [5] is A549.
The test system of assay [6] is SW-620.
The test system of assay [7] is ACHN.
The test system of assay [8] is HCC 2998.
Assay [9] deals with COLO 205.
Assay [10] deals with HCT-15.
In assay [11] the test system is NCI-H460.
The subject of assay [12] is SF-295.
Assay [13] concerns 786-0.
The test system of assay [14] is EKVX.
The test system of assay [15] is LOX IMVI.
Assay [16] relates to SR.
Assay [17] deals with MCF7.
Assay [18] concerns SK-OV-3.
The subject of assay [19] is NCI/ADR-RES.
In assay [20] the test system is RPMI-8226.

On to `COc1cc(/C=C2/C[C@H]3[C@@H]4CC=C5C[C@@H](OC(C)=O)CC[C@]5(C)[C@H]4CC[C@]3(C)NC2=O)cc(OC)c1OC`, for which the GI50 in assay [1] is 20.8 µM (inactive); in assay [2] it was 23.9 µM (inactive); in assay [3], 24 µM (inactive); in assay [4], 26.4 µM (inactive); in assay [5] it was 18 µM (inactive); in assay [6], 54 µM (inactive). In addition, the GI50 in assay [7] was 19.1 µM (inactive); in assay [8], 43.4 µM (inactive); in assay [9] it was > 100 µM (inactive); in assay [10] it was 32.7 µM; in [11], 32.7 µM (inactive); in [12] it was 26.8 µM (inactive). Further, the GI50 is 17.9 µM (inactive) in assay [13]; 26.6 µM (inactive) in assay [14]; 38.7 µM (inactive) in assay [15]; 47.6 µM (inactive) in assay [16]; 25.4 µM (inactive) in assay [17]; 25.3 µM (inactive) in assay [18]. Besides, the GI50 in assay [19] was 20 µM (inactive).

Take `CC(=O)Oc1ccc(-c2c(OC(C)=O)c(OC(C)=O)c(-c3ccc(OC(C)=O)c(OC(C)=O)c3)c(OC(C)=O)c2OC(C)=O)cc1`: the GI50 was 16.3 µM (inactive) in assay [1]; 19 µM (inactive) in assay [2]; 17.7 µM (inactive) in assay [3]; 16.3 µM (inactive) in [20]; 18.8 µM (inactive) in [4]; 17.8 µM (inactive) in assay [5]. Moreover, the GI50 in assay [6] was 14.9 µM (inactive); in assay [7], 16.4 µM (inactive); in assay [9], 17.7 µM (inactive); in assay [10] it was 17.1 µM; in [11], 40.1 µM (inactive); in [12], 6.03 µM (inactive). Further, the GI50 was 16.1 µM (inactive) in assay [13]; 0.553 µM (active) in assay [14]; 16.1 µM (inactive) in assay [15]; 23.9 µM (inactive) in assay [16]; 23.7 µM (inactive) in assay [17]; 22.3 µM (inactive) in assay [18]. Besides, the GI50 in assay [19] is 39.7 µM (inactive).

Turning to `Nc1ccc(-c2nc3cc(F)ccc3s2)cc1I`, the GI50 in [1] was 43.7 µM (inactive); in [2], 0.445 µM (active); in [3] it was 16.5 µM (inactive); in assay [20], > 100 µM (inactive); in assay [4] it was 18.5 µM (inactive); in [5], 23.6 µM (inactive). Also, the GI50 was 27.5 µM (inactive) in assay [6]; 5.36 µM (inactive) in assay [7]; < 0.01 µM (active) in assay [8]; 2.45 µM (inactive) in assay [9]; 1.34 µM in assay [10]; 0.0276 µM (active) in [11]. Further, the GI50 in assay [12] was 14.2 µM (inactive); in assay [13], 16.2 µM (inactive); in assay [14], 9.46 µM (inactive); in assay [15], 39.5 µM (inactive); in assay [17], < 0.0154 µM (active); in assay [18], 14.4 µM (inactive). Also, in assay [19], the GI50 is 18.8 µM (inactive).

As for `CN1CCN(c2ccc(-n3cc(C(=O)O)c(=O)c4cc(F)c(N5CCN(C)CC5)cc43)nc2)CC1`, the GI50 in assay [1] is > 100 µM (inactive); in assay [2] it was > 100 µM (inactive); in assay [3] it was > 100 µM (inactive); in [20] it was > 100 µM (inactive); in assay [4] it was 69.3 µM (inactive); in [5] it was > 100 µM (inactive). Besides, the GI50 in [6] was 56.2 µM (inactive); in [9], 25.4 µM (inactive); in [10], more than 100 µM; in [11] it was > 100 µM (inactive); in assay [12], > 100 µM (inactive); in assay [13], 64.7 µM (inactive). The GI50 in assay [14], in assay [15], in assay [16], in assay [17], in [18] and in [19] was > 100 µM (inactive) in each case.

As to `Clc1ncnc2c1nc(C#Cc1ccccc1)n2Cc1ccccc1`, the GI50 in assay [1] is 7.52 µM (inactive); in assay [2] it was 16.6 µM (inactive); in [3], 40.9 µM (inactive); in [4] it was 34 µM (inactive); in [5], 84.9 µM (inactive); in [6], 4.09 µM (inactive). Also, the GI50 was 65.2 µM (inactive) in [7]; 11.4 µM (inactive) in assay [8]; 16.5 µM (inactive) in assay [9]; 4.81 µM in [10]; 82.2 µM (inactive) in assay [11]; > 100 µM (inactive) in assay [12]. Moreover, the GI50 is 13.7 µM (inactive) in assay [13]; 13.3 µM (inactive) in assay [14]; 11.2 µM (inactive) in [15]; 3.08 µM (inactive) in assay [16]; 23 µM (inactive) in assay [17]; > 100 µM (inactive) in assay [18]. Further, the GI50 in assay [19] is 60 µM (inactive).

As to `NC1=CN(CCCO)C2=N/C(=C\c3ccccc3)C(=O)N12`, the GI50 is > 100 µM (inactive) in assay [1]; > 100 µM (inactive) in [2]; > 100 µM (inactive) in assay [3]; 83.4 µM (inactive) in assay [20]; > 100 µM (inactive) in assay [4]; > 100 µM (inactive) in [5]. In addition, the GI50 in assay [6] was > 100 µM (inactive); in [7], > 100 µM (inactive); in [8], > 100 µM (inactive); in assay [9], > 100 µM (inactive); in assay [10] it was more than 100 µM; in assay [11], > 100 µM (inactive). In addition, the GI50 was > 100 µM (inactive) in assay [12]; > 100 µM (inactive) in assay [13]; 69.5 µM (inactive) in assay [14]; > 100 µM (inactive) in assay [15]; > 100 µM (inactive) in [17]; > 100 µM (inactive) in assay [18]. The GI50 in [19] was > 100 µM (inactive).

As for `C[C@@H](CC(=O)O)OC1OC(COC(=O)C(C)(C)C)C(OC(=O)C(C)(C)C)C(OC(=O)C(C)(C)C)C1OC(=O)C(C)(C)C` (stereo partly drawn), the GI50 in assay [1] is 59.6 µM (inactive); in [2] it was 27.2 µM (inactive); in assay [3], 50.7 µM (inactive); in [20] it was 26.4 µM (inactive); in [4], 47.5 µM (inactive); in assay [5], 45 µM (inactive). Further, the GI50 is 45.4 µM (inactive) in assay [6]; 22.6 µM (inactive) in [7]; 35 µM (inactive) in assay [8]; 32.8 µM (inactive) in [9]; 32.4 µM in assay [10]; 29 µM (inactive) in [11]. Moreover, the GI50 in [12] was 50.5 µM (inactive); in assay [13], 66.2 µM (inactive); in [14] it was 93.5 µM (inactive); in [15] it was 97.3 µM (inactive); in assay [17], 41.2 µM (inactive); in assay [18] it was 73.6 µM (inactive). The GI50 in assay [19] was > 100 µM (inactive).

`CN(C)CCNC(=O)c1cccc(C(=O)Nc2ccccc2)c1[N+](=O)[O-]`: the GI50 in assay [1], in assay [2], in assay [3], in assay [4], in [5] and in assay [6] was > 100 µM (inactive) in each case. Also, the GI50 in [7] was > 100 µM (inactive); in assay [8] it was > 100 µM (inactive); in [9], 54.2 µM (inactive); in assay [10], more than 100 µM; in [11], > 100 µM (inactive); in [12], > 100 µM (inactive). Moreover, the GI50 in assay [13], in [16], in assay [17], in assay [18] and in assay [19] was > 100 µM (inactive) in each case.

With `O=C1/C(=C/c2cccc([N+](=O)[O-])c2)Cc2ccccc21`, the GI50 in assay [1] is > 100 µM (inactive); in [2], 73.1 µM (inactive); in assay [3], > 100 µM (inactive); in [20], > 100 µM (inactive); in assay [4] it was 39.7 µM (inactive); in assay [5] it was 91.6 µM (inactive). Besides, the GI50 in assay [6] is 94.8 µM (inactive); in assay [7] it was > 100 µM (inactive); in assay [9] it was > 100 µM (inactive); in assay [10], 72.8 µM; in assay [11], > 100 µM (inactive); in [12], > 100 µM (inactive). The GI50 was > 100 µM (inactive) in assay [13]; > 100 µM (inactive) in assay [14]; > 100 µM (inactive) in [15]; 36.8 µM (inactive) in [16]; > 100 µM (inactive) in [17]; > 100 µM (inactive) in assay [18]. Also, the GI50 in [19] was > 100 µM (inactive).

In the case of `CCOC(=O)/C(C(=O)Nc1ccc(F)cc1)=C(/N)N1CCOCC1`, the GI50 in assay [1], in assay [2], in assay [3], in assay [20], in assay [4] and in assay [5] was > 100 µM (inactive) each time. For the same molecule, the GI50 was > 100 µM (inactive) in assay [6]; > 100 µM (inactive) in [7]; > 100 µM (inactive) in assay [8]; > 100 µM (inactive) in assay [9]; more than 100 µM in [10]; > 100 µM (inactive) in assay [11]. Further, the GI50 in [12], in assay [13], in assay [14], in assay [15], in assay [17] and in assay [18] was > 100 µM (inactive) each time. Also, the GI50 in assay [19] is > 100 µM (inactive).

Turning to `NCCCN1CCN(c2ccccc2)CC1`, the GI50 in assay [1], in [3], in [20], in assay [4], in assay [5] and in assay [7] was > 100 µM (inactive) throughout. Besides, the GI50 in assay [9] is 78.7 µM (inactive); in [10], more than 100 µM; in [11], > 100 µM (inactive); in [12], 10.2 µM (inactive); in assay [13] it was > 100 µM (inactive); in assay [14] it was > 100 µM (inactive). Moreover, the GI50 in assay [15] was > 100 µM (inactive); in [16] it was 34.3 µM (inactive); in [17], > 100 µM (inactive); in [19], > 100 µM (inactive).
